Source: ChEMBL document CHEMBL2203214, “Polyether ionophores-promising bioactive molecules for cancer therapy” (Bioorg Med Chem Lett, 2012)
In brackets after ≈: the same amount, converted by molar mass.

Assays:
[1] = Antiproliferative activity against human SCC cells assessed as non-viable cell level; format: functional
[2] = Cell cycle arrest in human SCC cells assessed as accumulation at G1/G0 phase after 24 hrs relative to control; format: functional, cell-based
[3] = tested on: MDR; experiment: Inhibition of MDR in human KB-C4 cells assessed as increase of vinblastine accumulation preincubated for 30 mins before vinblastine addition measured after drug washout relative to control; format: cell-based
[4] = tested on: MDR; experiment: Inhibition of MDR in human KB-C4 cells assessed as increase of vinblastine accumulation after 1 hr relative to control; format: cell-based
[5] = Inhibition of vinblastine binding to human KB-C4 cells; format: functional, cell-based
[6] = Potentiation of colchicine-induced cytotoxicity in human KB-C4 cells at 1 ug/mL relative to control; format: functional
[7] = Induction of apoptosis in malignant lymphocyte after 48 hrs; format: functional
[8] = Toxicity in subchronic oral dosed dog after 3 months; format: organism-based, Canis lupus familiaris; conditions: in vivo
[9] = Toxicity in chronic oral dosed mouse after 2 years; format: organism-based; conditions: in vivo
[10] = Toxicity in chronic oral dosed rat after 2 years; format: organism-based; conditions: in vivo
[11] = Toxicity in subchronic oral dosed rat after 3 months; format: organism-based; conditions: in vivo
[12] = Toxicity in […] oral dosed dog after 1 year; format: organism-based, Canis lupus familiaris; conditions: in vivo
[13] = Antiproliferative activity against human NCI-H929 cells assessed as growth inhibition at 0.5 uM; format: functional; conditions: read-out: GI
[14] = tested on: SNU-C1; experiment: Antiproliferative activity against human SNU-C1 cells assessed as growth inhibition at 0.5 uM; format: functional; conditions: read-out: GI
[15] = tested on: PC-3; experiment: Antiproliferative activity against human PC3 cells after 48 hrs; format: functional, cell-based; conditions: PC-3, 48 h
[16] = Antiproliferative activity against human VCaP cells; format: functional, cell-based

For `CCC[C@H](O)[C@@]1(CC)C[C@@H](C)[C@](O)([C@]2(C)C[C@H](C)[C@@H]([C@@H](CC)C(=O)[C@@H](C)[C@@H](O)[C@H](C)[C@H]3O[C@@](O)([C@H](CC)C(=O)O)[C@@H](C)[C@H](O)[C@H]3CC)O2)O1` [INOSTAMYCIN], the Activity [1] was <1%, the fold change (FC) [2] was 1.2 and the fold change (FC) [3] was 3. For the same compound, the fold change (FC) [4] was 4 and the IC50 [5] was 0.94 µg/mL (≈ 1.34 µM).
With `CCC(=O)O[C@H]([C@H](C)[C@H]1O[C@@]2(CC[C@@](C)([C@H]3CC[C@@](C)([C@@H]4O[C@@H]([C@H]5O[C@@](O)(CO)[C@H](C)C[C@@H]5C)C[C@@H]4C)O3)O2)C[C@H](O)[C@H]1C)[C@H](C)C(=O)O` [LAIDLOMYCIN] the “fold change (FC)” value [6] was 700.
`C[C@H](CCC(=O)O)C[C@H](C)C[C@H](C)C(=O)/C=C(\O)[C@H](C)C[C@H](C)C/C=C/[C@@H](C)[C@@H](O)[C@@H](C)[C@@H](O)C[C@@H]1CC[C@@](C)([C@H]2CC[C@@](C)([C@@H](C)O)O2)O1` [IONOMYCIN] showed an IC50 [7] of 230 nM.
`CC[C@@]1([C@@H]2O[C@@H]([C@H]3O[C@@](O)(CO)[C@H](C)C[C@@H]3C)C[C@@H]2C)CC[C@H]([C@]2(C)CC[C@]3(C[C@H](O)[C@@H](C)[C@@H]([C@@H](C)[C@@H](OC)[C@H](C)C(=O)O)O3)O2)O1` [MONENSIN] gave an NOAEL at 3 months [8] of 5 mg/kg/day, an NOAEL at 2 years [9] of 1.3 mg/kg/day and an NOAEL at 2 years [10] of 1.4 mg/kg/day. It also gave an NOAEL at 3 months [11] of 2 mg/kg, an NOAEL at 1 year [12] of 1.25 mg/kg/day and an inhibition of growth at 0.5 µM [13] of 50%. The inhibition of growth at 0.5 µM [14] was 50%.
In the case of `CC[C@@H](C(=O)[C@@H](C)[C@@H](O)[C@H](C)[C@@H]1O[C@@H]([C@@H](CC)C(=O)O)CC[C@@H]1C)[C@H]1O[C@]2(C=C[C@@H](O)[C@]3(CC[C@@](C)([C@H]4CC[C@](O)(CC)[C@H](C)O4)O3)O2)[C@H](C)C[C@@H]1C` [SALINOMYCIN], the EC50 [15] is reported as > 1000 nM and the EC50 [16] is reported as 380 nM.
